According to PubChem BioAssay AID248 (DTP/NCI, 2004):
“And” between values parts separate entries of the source, which are not always exact repeats. Equal entries are not always repeated. Toxic doses and inconclusive results are not listed.

Tested on: L1210 leukemia ip in BDF1 mice, survival T/C
Assay: NCI In Vivo Anticancer Drug Screen. Data for tumor model L1210 Leukemia (intraperitoneal) in B6D2F1 (BDF1) mice
Settings: endpoint: mean survival time, higher = longer survival
How it was run: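 Antitumor effect is assessed in tumor-bearing animals. Survival in the compound arm is compared with a vehicle-dosed control arm and expressed as their quotient.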

[1] = dose: 100.0 mg/kg/injection, schedule: Q04DX003 (ip), vehicle: Klucel (hydroxypropylcellulose) (HPC)
[2] = dose: 200.0 mg/kg/injection, schedule: Q04DX003 (ip), vehicle: Klucel (hydroxypropylcellulose) (HPC)
[3] = dose: 400.0 mg/kg/injection, schedule: Q04DX003 (ip), vehicle: Klucel (hydroxypropylcellulose) (HPC)
[4] = dose: 100.0 mg/kg/injection, schedule: Q01DX001 (ip), vehicle: saline
[5] = dose: 200.0 mg/kg/injection, schedule: Q01DX001 (ip), vehicle: saline
[6] = dose: 400.0 mg/kg/injection, schedule: Q01DX001 (ip), vehicle: saline
[7] = dose: 20.0 mg/kg/injection, schedule: Q01DX009 (ip), vehicle: saline
[8] = dose: 100.0 mg/kg/injection, schedule: Q01DX009 (ip), vehicle: Klucel (hydroxypropylcellulose) (HPC)
[9] = dose: 200.0 mg/kg/injection, schedule: Q01DX009 (ip), vehicle: Klucel (hydroxypropylcellulose) (HPC)
[10] = dose: 400.0 mg/kg/injection, schedule: Q01DX009 (ip), vehicle: Klucel (hydroxypropylcellulose) (HPC)
[11] = dose: 100.0 mg/kg/injection, schedule: Q04DX003 (ip), vehicle: saline
[12] = dose: 200.0 mg/kg/injection, schedule: Q04DX003 (ip), vehicle: saline
[13] = dose: 100.0 mg/kg/injection, schedule: Q04DX003 (ip), vehicle: saline with Tween-80
[14] = dose: 200.0 mg/kg/injection, schedule: Q04DX003 (ip), vehicle: saline with Tween-80
[15] = dose: 400.0 mg/kg/injection, schedule: Q04DX003 (ip), vehicle: saline with Tween-80

CCCCCCCC[As](=O)(O)O
T/C (dose: 1.5 mg/kg/injection, schedule: Q01DX001 (ip), vehicle: carboxymethylcellulose (CMC)): 104 % of control
T/C (dose: 3.0 mg/kg/injection, schedule: Q01DX001 (ip), vehicle: carboxymethylcellulose (CMC)): 98 % of control
T/C (dose: 6.0 mg/kg/injection, schedule: Q01DX001 (ip), vehicle: carboxymethylcellulose (CMC)): 102 % of control

CCCCC(C=NCC(CCCC)(CCN(C)C)c1cccc2ccccc12)(CCN(C)C)c1cccc2ccccc12 (centres undefined)
T/C (dose: 6.25 mg/kg/injection, schedule: Q04DX002 (ip), vehicle: Klucel (hydroxypropylcellulose) (HPC)): 89 % of control
T/C (dose: 12.5 mg/kg/injection, schedule: Q04DX002 (ip), vehicle: Klucel (hydroxypropylcellulose) (HPC)): 89 % of control
T/C (dose: 25.0 mg/kg/injection, schedule: Q04DX002 (ip), vehicle: Klucel (hydroxypropylcellulose) (HPC)): 92 % of control

CC(C)NC(=O)c1ccccc1
T/C (dose: 100.0 mg/kg/injection, schedule: Q01DX001 (ip), vehicle: Klucel (hydroxypropylcellulose) (HPC)): 96 % of control
T/C [1]: 96 % of control
T/C (dose: 200.0 mg/kg/injection, schedule: Q01DX001 (ip), vehicle: Klucel (hydroxypropylcellulose) (HPC)): 98 % of control
T/C [2]: 103 % of control
T/C (dose: 400.0 mg/kg/injection, schedule: Q01DX001 (ip), vehicle: Klucel (hydroxypropylcellulose) (HPC)): 101 % of control
T/C [3]: 101 % of control

CC(C)(C)CC(C)(C)N(CSc1ccc2ccccc2c1)CSc1ccc2ccccc2c1
T/C [4]: 98 % of control
T/C [5]: 98 % of control
T/C [6]: 91 % of control

COc1cc2cc3cc4cc(OC)c(OC)cc4c(C)[n+]3cc2cc1OC (tested in a mixture with another compound)
T/C (dose: 2.5 mg/kg/injection, schedule: Q01DX009 (ip), vehicle: saline): 106 % of control
T/C (dose: 5.0 mg/kg/injection, schedule: Q01DX009 (ip), vehicle: saline): 108 % of control and 118 % of control
T/C (dose: 10.0 mg/kg/injection, schedule: Q01DX009 (ip), vehicle: saline): 108 % of control
T/C [7]: 104 % of control
T/C (dose: 40.0 mg/kg/injection, schedule: Q01DX009 (ip), vehicle: saline): 110 % of control and 111 % of control
T/C (dose: 80.0 mg/kg/injection, schedule: Q01DX009 (ip), vehicle: saline): 92 % of control

COc1ccc2c(c1)CCC1=C2CCC2C(=O)OC(=O)C12C (centres undefined)
T/C [8]: 98 % of control
T/C [1]: 90 % of control
T/C [9]: 95 % of control
T/C [2]: 98 % of control
T/C [10]: 101 % of control
T/C [3]: 97 % of control

COc1ccc(NC(=O)Nc2ccc(S(N)(=O)=O)cc2)c(OC)c1
T/C [8]: 96 % of control
T/C [9]: 94 % of control
T/C [10]: 88 % of control

O=C(C1=CCCCC1)c1ccccc1
T/C (dose: 75.0 mg/kg/injection, schedule: Q04DX002 (ip), vehicle: saline with Tween-80): 108 % of control
T/C (dose: 150.0 mg/kg/injection, schedule: Q04DX002 (ip), vehicle: saline with Tween-80): 97 % of control
T/C (dose: 300.0 mg/kg/injection, schedule: Q04DX002 (ip), vehicle: saline with Tween-80): 114 % of control

[Cl][Tl]
T/C [4]: 94 % of control
T/C [11]: 106 % of control
T/C [5]: 101 % of control
T/C [12]: 90 % of control
T/C [6]: 94 % of control

CCCCCP(=O)(CCCCC)C1CCCC1
T/C (dose: 25.0 mg/kg/injection, schedule: Q04DX002 (ip), vehicle: saline with Tween-80): 113 % of control
T/C (dose: 50.0 mg/kg/injection, schedule: Q04DX002 (ip), vehicle: saline with Tween-80): 100 % of control
T/C (dose: 100.0 mg/kg/injection, schedule: Q04DX002 (ip), vehicle: saline with Tween-80): 94 % of control and 90 % of control

O=P(Oc1ccc(OP(=O)(N2CC2)N2CC2)cc1)(N1CC1)N1CC1
T/C (dose: 9.0 mg/kg/injection, schedule: Q01DX009 (ip), vehicle: saline): 96 % of control
T/C (dose: 9.5 mg/kg/injection, schedule: Q01DX001 (ip), vehicle: saline): 98 % of control
T/C (dose: 13.0 mg/kg/injection, schedule: Q01DX009 (ip), vehicle: saline): 110 % of control
T/C (dose: 19.0 mg/kg/injection, schedule: Q01DX001 (ip), vehicle: saline): 110 % of control
T/C [7]: 104 % of control
T/C (dose: 22.0 mg/kg/injection, schedule: Q01DX Z (ip), vehicle: other): 103 % of control
T/C (dose: 32.0 mg/kg/injection, schedule: Q01DX009 (ip), vehicle: saline): 100 % of control
T/C (dose: 33.0 mg/kg/injection, schedule: Q01DX Z (ip), vehicle: other): 104 % of control
T/C (dose: 38.0 mg/kg/injection, schedule: Q01DX001 (ip), vehicle: saline): 102 % of control
T/C (dose: 50.0 mg/kg/injection, schedule: Q01DX Z (ip), vehicle: other): 114 % of control
T/C (dose: 54.0 mg/kg/injection, schedule: Q01DX009 (ip), vehicle: saline): 186 % of control
T/C (dose: 75.0 mg/kg/injection, schedule: Q01DX Z (ip), vehicle: other): 123 % of control
T/C (dose: 90.0 mg/kg/injection, schedule: Q01DX009 (ip), vehicle: saline): 166 % of control
T/C (dose: 150.0 mg/kg/injection, schedule: Q01DX009 (ip), vehicle: saline): 101 % of control
T/C (dose: 300.0 mg/kg/injection, schedule: Q01DX001 (ip), vehicle: saline): 153 % of control

CCOP(=O)(/C=C/NC1CCCCC1)OCC
T/C (dose: 50.0 mg/kg/injection, schedule: Q04DX003 (ip), vehicle: saline): 90 % of control
T/C [4]: 109 % of control
T/C [11]: 89 % of control
T/C [5]: 114 % of control
T/C [12]: 101 % of control

O=C(CCCc1ccc(N(CCCl)CCCl)cc1)NCc1ccccc1
T/C (dose: 4.0 mg/kg/injection, schedule: Q12HX018 (ip), vehicle: other): 112 % of control
T/C (dose: 6.0 mg/kg/injection, schedule: Q12HX018 (ip), vehicle: other): 103 % of control
T/C (dose: 8.0 mg/kg/injection, schedule: Q12HX018 (ip), vehicle: other): 108 % of control

CCN(CC)CCNC(=O)Nc1ccc(OC)cc1
T/C [8]: 96 % of control
T/C [9]: 103 % of control

CN1C(=O)NC2ON=C(c3ccccc3)C2C1=O (centres undefined)
T/C [8]: 103 % of control
T/C [1]: 100 % of control
T/C [9]: 104 % of control
T/C [2]: 103 % of control
T/C [10]: 104 % of control
T/C [3]: 100 % of control

CC(=O)OC1C(=O)C(C)(C)CN(C(C)(C)C)CC1(C)C (centres undefined)
T/C (dose: 100.0 mg/kg/injection, schedule: Q01DX001 (ip), vehicle: saline sonified): 102 % of control
T/C (dose: 200.0 mg/kg/injection, schedule: Q01DX001 (ip), vehicle: saline sonified): 91 % of control
T/C (dose: 400.0 mg/kg/injection, schedule: Q01DX001 (ip), vehicle: saline sonified): 90 % of control

C/C(=N\NS(=O)(=O)c1ccc(C)cc1)C1CCSC1 (centres undefined)
T/C (dose: 100.0 mg/kg/injection, schedule: Q01DX009 (ip), vehicle: saline with Tween-80): 93 % of control
T/C [13]: 111 % of control
T/C (dose: 200.0 mg/kg/injection, schedule: Q01DX009 (ip), vehicle: saline with Tween-80): 101 % of control
T/C [14]: 98 % of control
T/C (dose: 400.0 mg/kg/injection, schedule: Q01DX009 (ip), vehicle: saline with Tween-80): 90 % of control
T/C [15]: 96 % of control

O=C(Nc1ccccc1Cl)OCC#CCOC(=O)Nc1ccccc1Cl
T/C [13]: 102 % of control
T/C [14]: 93 % of control
T/C [15]: 91 % of control

NS(=O)(=O)CCCCCCN1C(=O)c2ccccc2C1=O
T/C [13]: 91 % of control
T/C [14]: 93 % of control
T/C [15]: 93 % of control

Cc1c(C)c(O)c(Br)c(C)c1O (tested in a mixture with another compound)
T/C [13]: 89 % of control

O=C(Nc1ccccc1F)N(Cc1ccccc1)Cc1ccccc1
T/C (dose: 50.0 mg/kg/injection, schedule: Q01DX009 (ip), vehicle: Klucel (hydroxypropylcellulose) (HPC)): 96 % of control
T/C [8]: 104 % of control
T/C [9]: 101 % of control

CCc1ccccc1NC(=O)Nc1ccc(C(=O)O)cc1
T/C [8]: 98 % of control
T/C [9]: 94 % of control

COC(=O)c1ccc(O)cc1
T/C (dose: 100.0 mg/kg/injection, schedule: Q04DX002 (ip), vehicle: saline): 96 % of control
T/C (dose: 200.0 mg/kg/injection, schedule: Q04DX002 (ip), vehicle: saline): 100 % of control
T/C (dose: 400.0 mg/kg/injection, schedule: Q04DX002 (ip), vehicle: saline): 100 % of control

Nc1nc(N)nc(-c2ccccc2N=NN2CCCC2)n1
T/C [1]: 105 % of control
T/C [2]: 98 % of control
T/C [3]: 95 % of control
